In patent US20230295157A1, “3-(1H-IMIDAZOL-2-YL)-2,3,8,8A-TETRAHYDROINDOLIZIN-5(1H)-ONE DERIVATIVES USEFUL AS FACTOR XIA INHIBITORS” (JANSSEN PHARMACEUTICA NV, priority 2020, published 2023):
Like-named read-outs stand apart in the source and are kept apart here. Each block holds one compound with its values, some of them ahead of it.

Legend:
Factor XIa = Factor XIa (Homo sapiens (Human), UniProt P03951); test: Factor XIa inhibition assay (FLINT) utilizing a fluorophore-quencher pair peptide substrate; type: biochemical; conditions: 30 min preincubation, kinetic reads over 30 min, read-out: FXIa Kin Inh IC50
Summary of the method: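 FXIa ([…]) preincubated 30 min with compound (11-point 3-fold dilution, top 100 nM, 2% DMSO), then 15 μM quenched FXI Arg146-based peptide added; Tris pH 7.5, CaCl2, BSA, CHAPS. Fluorescence 485/520 nm read kinetically every 5 min over 30 min at RT; IC50 by 4-parameter fit.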

human plasma kallikrein = human plasma kallikrein (Homo sapiens (Human), UniProt P03952); test: Kallikrein inhibition assay (FLINT) utilizing a quenched AMC peptide substrate; type: biochemical; conditions: 30 min preincubation, read-out: Kallikrein Kin Inh IC50
Summary of the method: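 Fluorogenic Z-Gly-Pro-Arg-AMC cleavage (50 μM substrate, 2 nM kallikrein, Tris pH 7.5, CaCl2, BSA, CHAPS, 2% DMSO) read kinetically at 340/440 nm for 30 min after 30-min compound pre-incubation. Compounds in 11-point 3-fold series from 1 μM; percent inhibition fitted to four-parameter equation for IC50.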

[1] = 5Fam-KLTRAETV-K5Tamra substrate 15 μM
[2] = kinetic reads over 30 min, Z-Gly-Pro-Arg-AMC substrate 50 μM
[3] = 5Fam-[…]-K5Tamra substrate 15 μM

Sequence of human plasma kallikrein (P03952 391-638): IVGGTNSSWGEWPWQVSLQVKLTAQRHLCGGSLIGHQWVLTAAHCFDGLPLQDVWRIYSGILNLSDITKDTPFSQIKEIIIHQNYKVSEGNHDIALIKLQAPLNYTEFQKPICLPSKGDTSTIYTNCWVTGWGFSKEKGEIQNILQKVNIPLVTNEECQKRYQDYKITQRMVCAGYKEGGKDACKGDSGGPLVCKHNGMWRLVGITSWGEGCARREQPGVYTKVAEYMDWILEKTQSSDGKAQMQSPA
Sequence of human plasma kallikrein (P03952 20-390 partner): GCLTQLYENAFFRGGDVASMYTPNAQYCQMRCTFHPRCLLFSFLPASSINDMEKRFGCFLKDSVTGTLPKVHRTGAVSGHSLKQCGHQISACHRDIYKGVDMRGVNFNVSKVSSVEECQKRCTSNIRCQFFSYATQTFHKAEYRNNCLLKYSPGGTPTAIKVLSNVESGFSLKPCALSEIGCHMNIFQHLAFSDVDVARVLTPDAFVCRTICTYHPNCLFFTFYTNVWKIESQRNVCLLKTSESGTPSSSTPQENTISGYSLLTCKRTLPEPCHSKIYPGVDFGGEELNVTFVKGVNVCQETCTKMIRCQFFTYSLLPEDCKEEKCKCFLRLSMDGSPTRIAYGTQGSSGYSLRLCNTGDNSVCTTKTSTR
Sequence of Factor XIa (P03951 388-625): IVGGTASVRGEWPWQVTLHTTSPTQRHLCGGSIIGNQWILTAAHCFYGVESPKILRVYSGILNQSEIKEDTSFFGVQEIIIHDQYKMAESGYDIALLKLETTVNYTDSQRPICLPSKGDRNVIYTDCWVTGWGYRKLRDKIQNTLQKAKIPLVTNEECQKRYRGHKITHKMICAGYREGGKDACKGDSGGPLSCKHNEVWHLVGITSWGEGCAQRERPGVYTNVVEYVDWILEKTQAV
Sequence of Factor XIa (P03951 19-387 partner): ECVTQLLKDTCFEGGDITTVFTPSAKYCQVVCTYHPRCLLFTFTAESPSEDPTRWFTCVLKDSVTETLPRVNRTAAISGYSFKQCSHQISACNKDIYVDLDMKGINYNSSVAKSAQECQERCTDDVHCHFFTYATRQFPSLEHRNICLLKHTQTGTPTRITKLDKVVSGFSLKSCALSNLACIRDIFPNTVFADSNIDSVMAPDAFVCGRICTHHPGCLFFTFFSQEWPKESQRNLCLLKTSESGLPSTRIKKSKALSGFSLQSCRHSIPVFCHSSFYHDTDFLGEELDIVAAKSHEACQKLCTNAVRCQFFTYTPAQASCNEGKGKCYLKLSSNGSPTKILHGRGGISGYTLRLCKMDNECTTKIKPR

Structure (SMILES): O=C1C=C(c2c(-n3cnnn3)ccc(Cl)c2F)C[C@H]2CC[C@@H](c3ncc(-c4ccc5[nH]ccc5c4)[nH]3)N12 [Example 14, (3S,8aR)-3-(5-(1H-indol-5-yl)-1H-imidazol-2-yl)-7-(3-chloro-2-fluoro-6-(1H-tetrazol-1-yl)phenyl)-2,3,8,8a-tetrahydroindolizin-5(1H)-one]
IC50 (Factor XIa; [1]): 3.8 nM | IC50 (human plasma kallikrein; [2]): 0.0065 µM

Structure (SMILES): O=C1C=C(c2c(-n3cnnn3)ccc(Cl)c2F)C[C@H]2CC[C@@H](c3ncc(-c4ccnc(CO)c4F)[nH]3)N12 [Example 222, (3S,8aR)-7-(3-Chloro-2-fluoro-6-(1H-tetrazol-1-yl)phenyl)-3-(5-(3-fluoro-2-(hydroxymethyl)pyridin-4-yl)-1H-imidazol-2-yl)-2,3,8,8a-tetrahydroindolizin-5(1H)-one]
IC50 (Factor XIa; [1]): 1.8 nM | IC50 (human plasma kallikrein; [2]): 0.0126 µM

Structure (SMILES): O=C1C=C(c2c(-n3cnnn3)ccc(Cl)c2F)C[C@H]2CC[C@@H](c3ncc(-c4cc[n+]([O-])c(CO)c4F)[nH]3)N12 [Example 65, 4-(2-((3S,8aR)-7-(3-chloro-2-fluoro-6-(1H-tetrazol-1-yl)phenyl)-5-oxo-1,2,3,5,8,8a-hexahydroindolizin-3-yl)-1H-imidazol-5-yl)-3-fluoro-2-(hydroxymethyl)pyridine 1-oxide]
IC50 (Factor XIa; [1]): 45.4 nM | IC50 (human plasma kallikrein; [2]): 0.42 µM

Structure (SMILES): N#CC1CN(c2nccc(-c3cnc([C@@H]4CC[C@@H]5CC(c6c(-n7cnnn7)ccc(Cl)c6F)=CC(=O)N54)[nH]3)c2F)C1 (single isomer, unassigned) [Example 100, 1-(4-(2-((3S*,8aR)-7-(3-chloro-2-fluoro-6-(1H-tetrazol-1-yl)phenyl)-5-oxo-1,2,3,5,8,8a-hexahydroindolizin-3-yl)-1H-imidazol-5-yl)-3-fluoropyridin-2-yl)azetidine-3-carbonitrile]
IC50 (Factor XIa; [3]): 1.9 nM | IC50 (human plasma kallikrein; [2]): 0.0051 µM

Structure (SMILES): O=C1C=C(c2c(-n3cnnn3)ccc(Cl)c2F)C[C@H]2CC[C@@H](c3ncc(-c4ccnc(C5(O)CC5)c4Cl)[nH]3)N12 (relative stereo) [Example 155, (3*S,8aR)-3-(5-(3-chloro-2-(1-hydroxycyclopropyl)pyridin-4-yl)-1H-imidazol-2-yl)-7-(3-chloro-2-fluoro-6-(1H-tetrazol-1-yl)phenyl)-2,3,8,8a-tetrahydroindolizin-5(1H)-one]
IC50 (Factor XIa; [3]): 4.9 nM | IC50 (human plasma kallikrein; [2]): 0.0524 µM

Structure (SMILES): CS(=O)(=O)NC(=O)c1sc(-c2c[nH]c(C3CC[C@@H]4CC(c5c(-n6cc(C(F)(F)F)nn6)ccc(Cl)c5F)=CC(=O)N34)n2)cc1F (stereo partly drawn) [Example 192, 5-(2-((8aR)-7-(3-chloro-2-fluoro-6-(4-(trifluoromethyl)-1H-1,2,3-triazol-1-yl)phenyl)-5-oxo-1,2,3,5,8,8a-hexahydroindolizin-3-yl)-1H-imidazol-4-yl)-3-fluoro-N-(methylsulfonyl)thiophene-2-carboxamide]
IC50 (Factor XIa; [3]): 5.4 nM | IC50 (human plasma kallikrein; [2]): 0.0295 µM

Structure (SMILES): O=C1C=C(c2c(-n3cnnn3)ccc(Cl)c2F)C[C@H]2CC[C@@H](c3nc(-c4ccnc(-c5ccn[nH]5)c4F)c[nH]3)N12 (single isomer, unassigned) [Example 115, (3S,8a*R)-7-(3-chloro-2-fluoro-6-(1H-tetrazol-1-yl)phenyl)-3-(4-(3-fluoro-2-(1H-pyrazol-5-yl)pyridin-4-yl)-1H-imidazol-2-yl)-2,3,8,8a-tetrahydroindolizin-5(1H)-one]
IC50 (Factor XIa; [1]): 1.5 nM | IC50 (human plasma kallikrein; [2]): 0.0019 µM

Structure (SMILES): O=C1C=C(c2c(-n3cnnn3)ccc(Cl)c2F)C[C@H]2CC[C@H](c3ncc(-c4ccnc(N5CCC[C@H](O)C5)c4F)[nH]3)N12 [Example 188, (3R,8aR)-7-(3-chloro-2-fluoro-6-(1H-tetrazol-1-yl)phenyl)-3-(5-(3-fluoro-2-((S)-3-hydroxypiperidin-1-yl)pyridin-4-yl)-1H-imidazol-2-yl)-2,3,8,8a-tetrahydroindolizin-5(1H)-one]
IC50 (Factor XIa; [1]): 17.2 nM | IC50 (human plasma kallikrein; [2]): 0.0078 µM

Structure (SMILES): O=C(c1nccc(-c2cnc([C@@H]3CC[C@@H]4CC(c5c(-n6cnnn6)ccc(Cl)c5F)=CC(=O)N43)[nH]2)c1F)N1CC(F)(F)C1 [Example 94, (3S,8aR)-7-(3-Chloro-2-fluoro-6-(1H-tetrazol-1-yl)phenyl)-3-(5-(2-(3,3-difluoroazetidine-1-carbonyl)-3-fluoropyridin-4-yl)-1H-imidazol-2-yl)-2,3,8,8a-tetrahydroindolizin-5(1H)-one]
IC50 (Factor XIa; [1]): 12.3 nM | IC50 (human plasma kallikrein; [2]): 0.121 µM

Structure (SMILES): O=C1C=C(c2c(-n3cnnn3)ccc(Cl)c2F)C[C@H]2CCC(c3ncc(-c4n[nH]cc4Cl)[nH]3)N12 (stereo partly drawn) [Example 4, (8aR)-7-[3-Chloro-2-fluoro-6-(tetrazol-1-yl)phenyl]-3-[5-(4-chloro-1H-pyrazol-3-yl)-1H-imidazol-2-yl]-2,3,8,8a-tetrahydro-1H-indolizin-5-one]
IC50 (Factor XIa; [1]): 91.7 nM | IC50 (human plasma kallikrein; [2]): 0.867 µM

Structure (SMILES): O=C1C=C(c2c(-n3cnnn3)ccc(Cl)c2F)CC2CC[C@@H](c3nc(-c4ccnc(OCCO)c4)c[nH]3)N12 (single isomer, unassigned) [Example 9]
IC50 (Factor XIa; [1]): 2.1 nM | IC50 (human plasma kallikrein; [2]): 0.0085 µM

Continued, values first:

IC50 (Factor XIa; [1]): 45.8 nM | IC50 (human plasma kallikrein; [2]): 0.15 µM
Structure (SMILES): CCOC(=O)Nc1ncccc1-c1c[nH]c([C@@H]2CC[C@H]3CC(c4c(-n5cnnn5)ccc(Cl)c4F)=CC(=O)N32)n1 [Example 262, Ethyl N-[3-[2-[(3S,8aS)-7-[3-chloro-2-fluoro-6-(tetrazol-1-yl)phenyl]-5-oxo-2,3,8,8a-tetrahydro-1H-indolizin-3-yl]-1H-imidazol-4-yl]-2-pyridyl]carbamate]

IC50 (Factor XIa; [1]): 1.3 nM | IC50 (human plasma kallikrein; [2]): 0.0035 µM
Structure (SMILES): O=C1Cc2cc(-c3cnc([C@@H]4CC[C@@H]5CC(c6c(-n7cnnn7)ccc(Cl)c6F)=CC(=O)N54)[nH]3)ccc2N1 (single isomer, unassigned) [Example 284]

IC50 (Factor XIa; [1]): 1 nM | IC50 (human plasma kallikrein; [2]): 0.0124 µM
Structure (SMILES): COC(=O)Nc1ccc(-c2cnc([C@@H]3CCC4CC(c5c(-n6cnnn6)ccc(Cl)c5F)=CC(=O)N43)[nH]2)nc1 (stereo partly drawn) [Example 326, Methyl (6-(2-((3S)-7-(3-Chloro-2-fluoro-6-(1H-tetrazol-1-yl)phenyl)-5-oxo-1,2,3,5,8,8a-hexahydroindolizin-3-yl)-1H-imidazol-5-yl)pyridin-3-yl)carbamate]

IC50 (Factor XIa; [1]): 0.6 nM | IC50 (human plasma kallikrein; [2]): 0.0012 µM
Structure (SMILES): COc1ccc(-c2c[nH]c([C@@H]3CCC4CC(c5c(-n6cnnn6)ccc(Cl)c5F)=CC(=O)N43)n2)c(NC(=O)C2CC2)c1 (stereo partly drawn) [Example 276, N-(2-(2-((3S)-7-(3-Chloro-2-fluoro-6-(1H-tetrazol-1-yl)phenyl)-5-oxo-1,2,3,5,8,8a-hexahydroindolizin-3-yl)-1H-imidazol-4-yl)-5-methoxyphenyl)cyclopropanecarboxamide]

IC50 (Factor XIa; [1]): 0.5 nM | IC50 (human plasma kallikrein; [2]): 0.0019 µM
Structure (SMILES): COc1cc2[nH]cc(-c3cnc([C@@H]4CC[C@@H]5CC(c6c(-n7cnnn7)ccc(Cl)c6F)=CC(=O)N54)[nH]3)c2cn1 [Example 388, (3S,8aR)-7-(3-chloro-2-fluoro-6-(1H-tetrazol-1-yl)phenyl)-3-(5-(6-methoxy-1H-pyrrolo[3,2-c]pyridin-3-yl)-1H-imidazol-2-yl)-2,3,8,8a-tetrahydroindolizin-5(1H)-one]

IC50 (Factor XIa; [1]): 0.8 nM | IC50 (human plasma kallikrein; [2]): 0.0015 µM
Structure (SMILES): CC1=CCc2c(-c3cnc(C4CCC5CC(c6c(-n7cnnn7)ccc(Cl)c6F)=CC(=O)N54)[nH]3)ccnc21 (centres unmarked) [Example 374, 7-(3-chloro-2-fluoro-6-(1H-tetrazol-1-yl)phenyl)-3-(5-(7-methyl-5H-cyclopenta[b]pyridin-4-yl)-1H-imidazol-2-yl)-2,3,8,8a-tetrahydroindolizin-5(1H)-one]

IC50 (Factor XIa; [1]): > 100 nM | IC50 (human plasma kallikrein; [2]): 0.73 µM
Structure (SMILES): CC(=O)Nc1cnc(C(F)(F)F)cc1-c1cnc([C@@H]2CC[C@H]3CC(c4c(-n5cnnn5)ccc(Cl)c4F)=CC(=O)N32)[nH]1 [Example 244, N-[4 [2-[(3S,8aS)-7-[3-Chloro-2-fluoro-6-(tetrazol-1-yl)phenyl]-5-oxo-2,3,8,8a-tetrahydro-1H-indolizin-3-yl]-1H-imidazol-5-yl]-6-(trifluoromethyl)-3-pyridyl]acetamide]

IC50 (Factor XIa; [1]): 79.7 nM | IC50 (human plasma kallikrein; μM, kinetic reads): 1.2 µM
Structure (SMILES): CS(=O)(=O)Nc1ccccc1-c1c[nH]c([C@@H]2CCC3CC(c4c(-n5cnnn5)ccc(Cl)c4F)=CC(=O)N32)n1 (stereo partly drawn) [Example 293, N-(2-(2-((3S)-7-(3-Chloro-2-fluoro-6-(1H-tetrazol-1-yl)phenyl)-5-oxo-1,2,3,5,8,8a-hexahydroindolizin-3-yl)-1H-imidazol-4-yl)phenyl)methanesulfonamide]

IC50 (Factor XIa; [1]): 32.2 nM | IC50 (human plasma kallikrein; [2]): 0.226 µM
Structure (SMILES): CCOC(=O)Nc1ccncc1-c1c[nH]c([C@@H]2CCC3CC(c4c(-n5cnnn5)ccc(Cl)c4F)=CC(=O)N32)n1 (stereo partly drawn) [Example 251, Ethyl N-[3-[2-[(3S)-7-[3-chloro-2-fluoro-6-(tetrazol-1-yl)phenyl]-5-oxo-2,3,8,8a-tetrahydro-1H-indolizin-3-yl]-1H-imidazol-4-yl]-4-pyridyl]carbamate]

IC50 (Factor XIa; [1]): 0.2 nM | IC50 (human plasma kallikrein; [2]): 0.0006 µM
Structure (SMILES): Nc1n[nH]c2cc(-c3cnc([C@@H]4CCC5CC(c6c(-n7cnnn7)ccc(Cl)c6F)=CC(=O)N54)[nH]3)ccc12 (stereo partly drawn) [Example 313, (3S)-3-(5-(3-Amino-1H-indazol-6-yl)-1H-imidazol-2-yl)-7-(3-chloro-2-fluoro-6-(1H-tetrazol-1-yl)phenyl)-2,3,8,8a-tetrahydroindolizin-5(1H)-one]

IC50 (Factor XIa; [3]): 3.1 nM | IC50 (human plasma kallikrein; [2]): 0.0177 µM
Structure (SMILES): COC(=O)Nc1ccccc1-c1cnc([C@@H]2CC[C@@H]3CC(c4c(-n5cnnn5)ccc(Cl)c4F)=CC(=O)N32)[nH]1 (relative stereo) [Example 301, Methyl 2-(2-((3S,8aR*)-7-(3-chloro-2-fluoro-6-(1H-tetrazol-1-yl)phenyl)-5-oxo-1,2,3,5,8,8a-hexahydroindolizin-3-yl)-1H-imidazol-4-yl)phenylcarbamate]
